These results are taken from patent publication US11273168B2, “Methods of treating anxiety by administering a substituted quinolone” (OTSUKA PHARMACEUTICAL CO., LTD., priority 2010, dated 2022).

Holding throughout (type): biochemical
One assay has as its target T1, Dopamine (DA) uptake (Rattus norvegicus, UniProt P23977).
T1 construct: The suspension was used as a crude synaptosome fraction; from tissue; host or cells: rat (male Wistar) corpus striatum, crude synaptosome fraction
As to the kind of experiment: Dopamine (DA) uptake inhibitory activity using rat brain synaptosome (corpus striatum). Particulars: tritium-labeled DA 2 nM, 37° C. ten minutes, read-out: 50% Inhibitory concentration. On the procedure:
Measurement of Dopamine (DA) Uptake Inhibitory Activity of Test Compound Using Rat Brain Synaptosome
Male Wistar rats were decapitated, and their brains were removed and dissected to remove the corpus striatum. The separated corpus striatum was placed in a 20-fold weight of a 0.32 molarity (M) sucrose solution and homogenized with a potter homogenizer. The homogenate was centrifuged at 1000 g at 4° C. for 10 minutes, and the supernatant was further centrifuged at 20000 g at 4° C. for 20 minutes. […] The suspension was used as a crude synaptosome fraction.
Uptake reaction was performed using each well of a 96-well round-bottom plate and a 200 μl volume in total of a solution containing pargyline (final concentration: 10 μM) and ascorbic acid (final concentration: 0.2 mg/mil).
(§1) Specifically, a solvent, unlabeled DA, and serially diluted test compounds were separately added to the wells, and the synaptosome fraction was added in an amount 1/10 of the final volume to each well and preincubated at 37° C. for 10 minutes. Then, a tritium-labeled DA solution (final concentration: 2 nM) was added thereto to initiate uptake reaction at 37° C. Ten minutes later, the uptake reaction was terminated by suction filtration through a 96-well glass fiber filter plate. Furthermore, the filter was washed with a cold saline and then sufficiently dried. MicroScint-O (PerkinElmer Co., Ltd.) was added thereto, and the residual radioactivity on the filter was measured.
An uptake value obtained by the addition of only the solvent was defined as 100%, and an uptake value (nonspecific uptake value) obtained by the addition of the unlabeled DA (final concentration: 10 μM) was defined as 0%. A 50% inhibitory concentration was calculated from the test compound concentrations and inhibitory activities thereat.

A further assay has as its target T2, Serotonin (5-HT) uptake (Rattus norvegicus, UniProt P31652).
T2 construct: The suspension was used as a crude synaptosome fraction; from tissue; host or cells: rat (male Wistar) frontal cortex, crude synaptosome fraction
As to the kind of experiment: Serotonin (5-HT) uptake inhibitory activity using rat brain synaptosome (frontal cortex). Conditions: tritium-labeled 5-HT 8 nM, 37° C. 10 minutes. On the procedure: Measurement of Serotonin (5-HT) Uptake Inhibitory Activity of Test Compound Using Rat Brain Synaptosome
Male Wistar rats were decapitated, and their brains were removed and dissected to remove the frontal cortex. The separated frontal cortex was placed in a 20-fold weight of a 0.32 molarity (M) sucrose solution and homogenized with a potter homogenizer. The homogenate was centrifuged at 1000 g at 4° C. for 10 minutes, and the supernatant was further centrifuged at 20000 g at 4° C. for 20 minutes. […] The suspension was used as a crude synaptosome fraction.
(§2) Uptake reaction was performed using each well of a 96-well round-bottom plate and a 200 μl volume in total of a solution containing pargyline (final concentration: 10 μM) and ascorbic acid (final concentration: 0.2 mg/ml).
as §1, with “5-HT,” for “DA,”, “5-HT” for “DA”, “8” for “2”, “10” for “Ten”
An uptake value obtained by the addition of only the solvent was defined as 100%, and an uptake value (nonspecific uptake value) obtained by the addition of the unlabeled 5-HT (final concentration: 10 μM) was defined as 0%. A 50%, inhibitory concentration was calculated from the test compound concentrations and inhibitory activities thereat.

In assay [1] the target is Norepinephrine (NE) uptake (Rattus norvegicus, UniProt Q9WTR4). As to the kind of experiment: Norepinephrine (NE) uptake inhibitory activity using rat brain synaptosome (hippocampus). How it is done:
Measurement of Norepinephrine (NE) Uptake Inhibitory Activity of Test Compound Using Rat Brain Synaptosome
Male Wistar rats were decapitated, and their brains were removed and dissected to remove the hippocampus. The separated hippocampus was placed in a 20-fold weight of a 0.32 molarity (M) sucrose solution and homogenized with a potter homogenizer. The homogenate was centrifuged at 1000 g at 4° C. for 10 minutes, and the supernatant was further centrifuged at 20000 g at 4° C. for 20 minutes. The pellet was suspended in an incubation buffer (20 mM HEPES buffer (pH 7.4) containing 10 mM glucose, 145 mM sodium chloride, 4.5 mM potassium chloride, 1.2 mM magnesium chloride, and 1.5 mM calcium chloride). The suspension was used as a crude synaptosome fraction.
as §2
as §1, with “NE,” for “DA,”, “NE” for “DA”, “12” for “2”
An uptake value obtained by the addition of only the solvent was defined as 100%, and an uptake value (nonspecific uptake value) obtained by the addition of the unlabeled NE (final concentration: 10 μM) was defined as 0%. A 50% inhibitory concentration was calculated from the test compound concentrations and inhibitory activities thereat.

Where [2] appears, read: read-out: 50% Inhibitory concentration.
Setting [3] is: tritium-labeled NE 12 nM, 37° C. ten minutes, read-out: 50% inhibitory concentration.
[4] abbreviates: read-out: 50% inhibitory concentration, tritium-labeled NE 12 nM, 37° C. ten minutes.

Structures can show the parent of a compound that is named as a salt. Where two headings read alike, the source gives them in different places.

T2 sequence (P31652 whole entry): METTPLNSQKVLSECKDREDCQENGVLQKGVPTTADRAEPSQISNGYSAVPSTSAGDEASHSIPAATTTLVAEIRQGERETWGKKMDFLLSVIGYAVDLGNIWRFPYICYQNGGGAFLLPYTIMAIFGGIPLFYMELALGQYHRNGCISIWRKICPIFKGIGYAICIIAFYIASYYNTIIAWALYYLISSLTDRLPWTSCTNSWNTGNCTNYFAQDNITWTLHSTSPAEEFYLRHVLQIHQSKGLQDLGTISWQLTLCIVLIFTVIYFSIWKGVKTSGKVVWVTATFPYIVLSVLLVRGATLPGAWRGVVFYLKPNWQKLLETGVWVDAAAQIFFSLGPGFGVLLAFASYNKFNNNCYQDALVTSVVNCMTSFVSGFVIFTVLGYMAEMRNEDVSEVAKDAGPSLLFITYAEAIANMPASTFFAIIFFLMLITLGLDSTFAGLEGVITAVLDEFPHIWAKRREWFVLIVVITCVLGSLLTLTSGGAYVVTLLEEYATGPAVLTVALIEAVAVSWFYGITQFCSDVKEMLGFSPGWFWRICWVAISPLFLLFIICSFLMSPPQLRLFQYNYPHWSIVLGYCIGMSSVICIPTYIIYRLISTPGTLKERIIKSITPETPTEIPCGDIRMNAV
T1 sequence (P23977 whole entry): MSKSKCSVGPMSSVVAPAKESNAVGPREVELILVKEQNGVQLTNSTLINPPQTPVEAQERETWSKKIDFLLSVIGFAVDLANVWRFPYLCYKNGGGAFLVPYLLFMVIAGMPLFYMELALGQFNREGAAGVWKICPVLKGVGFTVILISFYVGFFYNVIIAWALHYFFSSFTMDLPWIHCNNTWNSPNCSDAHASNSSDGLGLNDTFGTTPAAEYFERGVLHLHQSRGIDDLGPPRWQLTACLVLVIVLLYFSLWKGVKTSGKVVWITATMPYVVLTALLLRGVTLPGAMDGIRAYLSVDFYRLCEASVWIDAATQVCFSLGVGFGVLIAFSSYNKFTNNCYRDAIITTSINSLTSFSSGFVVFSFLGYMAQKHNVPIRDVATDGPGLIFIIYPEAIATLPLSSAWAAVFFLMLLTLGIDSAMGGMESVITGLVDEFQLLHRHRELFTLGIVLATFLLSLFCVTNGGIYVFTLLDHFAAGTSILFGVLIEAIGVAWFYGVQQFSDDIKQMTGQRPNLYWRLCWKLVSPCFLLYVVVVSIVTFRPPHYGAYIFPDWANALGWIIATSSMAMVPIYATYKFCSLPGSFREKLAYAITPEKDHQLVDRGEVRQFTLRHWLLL

With `CC1(C)CCN(c2ccc(Cl)c(Cl)c2)[C@@H]2CCCC[C@@H]2N1` (relative stereo) [Example 322], the IC50 came to 67.7 nM at Dopamine (DA) uptake, 9.6 nM on Serotonin (5-HT) uptake (setting [2]) and 40.1 nM in assay [1] (setting [3]).

Regarding `C[C@@H]1CN(c2ccc3sccc3c2)[C@H]2CCCC[C@@H]2N1` [Example 1121], the IC50 at Dopamine (DA) uptake came out at 29.9 nM; on Serotonin (5-HT) uptake (setting [2]) it was 8.5 nM; in assay [1] (setting [3]), 0.7 nM.

Take `C[C@@H]1CN(c2ccc3sccc3c2)[C@H]2CCCC[C@@H]2N1` (relative stereo) [Example 285]: the IC50 on Dopamine (DA) uptake is 43.9 nM; at Serotonin (5-HT) uptake (setting [2]), 19.7 nM; in assay [1] (setting [3]) it was 1.4 nM.

`OCCN1CCN(c2ccc(Cl)c(Cl)c2)[C@H]2CCCC[C@@H]21` (relative stereo) [Example 300]: the IC50 is 81.3 nM on Dopamine (DA) uptake, 89.1 nM on Serotonin (5-HT) uptake (setting [2]) and 9.9 nM in assay [1] (setting [3]).

`CC1(C)CN(c2ccc(F)c3[nH]ccc23)[C@H]2CCCC[C@H]2N1` [Example 780]: the values for the IC50 (at Dopamine (DA) uptake; on Serotonin (5-HT) uptake (setting [2]); in assay [1] (setting [3])) were 4.3 nM, 6.5 nM and 0.6 nM, respectively.

With `CC1(C)CN(c2cccc3occc23)[C@H]2CCCC[C@@H]2N1` [Example 191], the IC50 came to 13.5 nM at Dopamine (DA) uptake, 3.2 nM on Serotonin (5-HT) uptake (setting [2]) and 2.1 nM in assay [1] (setting [3]).

Turning to `Clc1ccc(N2CC3(CCC3)N[C@H]3CCCC[C@H]32)cc1` [Example 276], the values for the IC50 (at Dopamine (DA) uptake; at Serotonin (5-HT) uptake (setting [2]); in assay [1] (setting [3])) were 10.9 nM, 7.2 nM and 4.5 nM, respectively.

Take `CC1(C)CN(c2cccc3ncccc23)[C@H]2CCCC[C@H]2N1` [Example 120]: the IC50 came to 187 nM at Dopamine (DA) uptake, 9.2 nM on Serotonin (5-HT) uptake (50% Inhibitory concentration) and 9.2 nM in assay [1] (setting [4]).

In the case of `CC1(C)CN(c2ccc(F)c(Cl)c2)[C@@H]2CCCC[C@@H]2N1` [Example 112, (4aS,8aR)-1-(3-chloro-4-fluorophenyl)-3,3-dimethyldecahydroquinoxaline hydrochloride], the results for the IC50 (at Dopamine (DA) uptake; on Serotonin (5-HT) uptake (setting [2]); in assay [1] (setting [3])) were 264 nM, 7.1 nM and 87.3 nM, respectively.

On to `CC1(C)CN(c2ccc3cc(C#N)oc3c2)[C@@H]2CCCC[C@@H]2N1` [Example 641], for which the IC50 on Dopamine (DA) uptake was found to be 9.7 nM; on Serotonin (5-HT) uptake (setting [2]) it was 2.2 nM; in assay [1] (setting [3]), 76 nM.

For `CN1[C@@H]2CCCC[C@@H]2N(c2cccc3sccc23)CC1(C)C` [Example 125], the IC50 at Dopamine (DA) uptake was 5.2 nM; on Serotonin (5-HT) uptake (setting [2]), 4.7 nM; in assay [1] (setting [3]), 1.9 nM.

On to `CC1(C)CN(c2cc(F)cc3ccsc23)[C@@H]2CCCC[C@@H]2N1` [Example 621], for which the values for the IC50 (on Dopamine (DA) uptake; at Serotonin (5-HT) uptake (50% Inhibitory concentration); in assay [1] (setting [4])) were 128 nM, 7 nM and 0.7 nM, respectively.

For the compound `Cc1c(Cl)cccc1N1CC(C)(C)N[C@H]2CCCC[C@H]21` [Example 468], the IC50 on Dopamine (DA) uptake was determined as 54 nM; at Serotonin (5-HT) uptake (setting [2]), 3.8 nM; in assay [1] (setting [3]) it was 7.5 nM.

Regarding `CC1(C)CN(c2ccc3cc[nH]c3c2)[C@H]2CCCC[C@H]2N1` [Example 2, (4aR,8aS)-1-(1H-indol-6-yl)-3,3-dimethyldecahydroquinoxaline], the IC50 is 85.9 nM on Dopamine (DA) uptake, 7.1 nM at Serotonin (5-HT) uptake (setting [2]) and 4.6 nM in assay [1] (setting [3]).

Take `CC1(C)CN(c2ccc(F)c3occc23)[C@H]2CCCC[C@H]2N1` [Example 136]: the figures for the IC50 (at Dopamine (DA) uptake; at Serotonin (5-HT) uptake (setting [2]); in assay [1] (setting [3])) were 7.7 nM, 1.3 nM and 0.5 nM, respectively.

Take `CC1(C)CN(c2ccc(O)cc2)[C@H]2CCCC[C@H]2N1` [Example 805]: the IC50 on Dopamine (DA) uptake worked out at 83.8 nM; on Serotonin (5-HT) uptake (setting [2]), 42.6 nM; in assay [1] (setting [3]) it was 30.4 nM.

Regarding `C[C@@H]1CN(c2ccc(OC(F)F)c(F)c2)[C@H]2CCCC[C@@H]2N1` [Example 1534], the figures for the IC50 (at Dopamine (DA) uptake; against Serotonin (5-HT) uptake (50% Inhibitory concentration); in assay [1] (setting [4])) were 215 nM, 38.1 nM and 4 nM, respectively.

For `CC1(C)CN(c2ccc3occc3c2)[C@H]2CCCC[C@@H]2N1` [Example 196], the IC50 stood at 18.3 nM on Dopamine (DA) uptake, 4.4 nM on Serotonin (5-HT) uptake (setting [2]) and 1.7 nM in assay [1] (setting [3]).

In the case of `CC1(C)CN(c2ccc(F)c3occc23)[C@@H]2CCCC[C@@H]2N1` [Example 77, (4aS,8aR)-1-(7-fluorobenzofuran-4-yl)-3,3-dimethyldecahydroquinoxaline], the results for the IC50 (at Dopamine (DA) uptake; at Serotonin (5-HT) uptake (setting [2]); in assay [1] (setting [3])) were 41.2 nM, 0.8 nM and 3.9 nM, respectively.

Consider `CN1[C@@H]2CCCC[C@@H]2N(c2cccc3occc23)CC1(C)C` [Example 132], for which the IC50 came to 3.9 nM at Dopamine (DA) uptake, 8.8 nM on Serotonin (5-HT) uptake (setting [2]) and 3.1 nM in assay [1] (setting [3]).

Regarding `CC1(C)CN(c2cccc3occc23)[C@H]2CCCC[C@H]2N1` [Example 131], the IC50 on Dopamine (DA) uptake is 8.3 nM; on Serotonin (5-HT) uptake (setting [2]), 6.1 nM; in assay [1] (setting [3]), 0.7 nM.

Take `CC1(C)CN(c2ccc3sccc3c2)[C@H]2CCCCC[C@@H]2N1` (relative stereo) [Example 348]: the IC50 turned out to be 27.3 nM at Dopamine (DA) uptake, 6.4 nM on Serotonin (5-HT) uptake (setting [2]) and 4.6 nM in assay [1] (setting [3]).

Regarding `CC1(C)CN(c2ccc3sccc3c2)[C@@H]2CCCCC[C@@H]2N1` (racemic) [Example 344], the results for the IC50 (at Dopamine (DA) uptake; on Serotonin (5-HT) uptake (setting [2]); in assay [1] (setting [3])) were 9.8 nM, 6.8 nM and 7.5 nM, respectively.

On to `CC1(C)CN(c2ccc3cc(OC(F)F)ccc3c2)[C@H]2CCCC[C@@H]2N1` [Example 867], for which the IC50 at Dopamine (DA) uptake stood at 85.7 nM; at Serotonin (5-HT) uptake (setting [2]), 4.7 nM; in assay [1] (setting [3]), 11.7 nM.

Consider `CC1(C)CN(c2ccc(F)c3c2CCC3)[C@H]2CCCC[C@H]2N1` [Example 791], for which the IC50 at Dopamine (DA) uptake was determined as 161 nM; at Serotonin (5-HT) uptake (setting [2]) it was 1.4 nM; in assay [1] (setting [3]), 0.7 nM.

Regarding `CC1(C)CN(c2ccc(F)c3ccccc23)[C@H]2CCCC[C@@H]2N1` (relative stereo) [Example 409], the IC50 on Dopamine (DA) uptake is 165 nM; on Serotonin (5-HT) uptake (setting [2]), 35.6 nM; in assay [1] (setting [3]), 9.1 nM.

`C[C@@H]1CN(c2cccc3ccsc23)[C@@H]2CCCC[C@@H]2N1` (relative stereo) [Example 1113]: the IC50 was found to be 26 nM on Dopamine (DA) uptake, 5.4 nM at Serotonin (5-HT) uptake (setting [2]) and 1.7 nM in assay [1] (setting [3]).

For the compound `CC1(C)CN(c2cccc3sccc23)[C@@H]2CCCC[C@@H]2N1` (relative stereo) [Example 27], the IC50 turned out to be 31.9 nM on Dopamine (DA) uptake, 5.8 nM at Serotonin (5-HT) uptake (setting [2]) and 0.9 nM in assay [1] (setting [3]).

Turning to `COc1cc2ccc(N3CC(C)(C)N[C@H]4CCCC[C@H]43)cc2cc1C#N` [Example 610], the IC50 at Dopamine (DA) uptake came to 13.2 nM; on Serotonin (5-HT) uptake (setting [2]), 4.6 nM; in assay [1] (setting [3]) it was 5.9 nM.
